Experimental data taken from paper PMC9329436, “Optimization of the 4-anilinoquin(az)oline scaffold as epidermal growth factor receptor (EGFR) inhibitors for chordoma utilizing a toxicology profiling assay platform” (Scientific Reports, 2022).
Where two headings read alike, the source gives them in different places.

Tests used:
Type in all cases: biochemical
[1] = biological target: 320 wild-type protein kinases (Homo sapiens, UniProt P49840); details: GSK3-alpha, singlicate
From the text: (§1) Table S4. Profiling of two compounds at two concentrations against 320 wild-type protein kinases; singlicate measurement; Residual activities (% of control).

[2] = biological target: 320 wild-type protein kinases (Homo sapiens, UniProt Q05655); details: PKC-delta, singlicate
From the text: as §1

[3] = biological target: 320 wild-type protein kinases (Homo sapiens, UniProt P42345); details: mTOR, singlicate
From the text: as §1

[4] = biological target: 320 wild-type protein kinases (Homo sapiens, UniProt P48730); details: CK1-delta, singlicate
Chain of 320 wild-type protein kinases (Homo sapiens, UniProt P48730) (P48730 whole entry): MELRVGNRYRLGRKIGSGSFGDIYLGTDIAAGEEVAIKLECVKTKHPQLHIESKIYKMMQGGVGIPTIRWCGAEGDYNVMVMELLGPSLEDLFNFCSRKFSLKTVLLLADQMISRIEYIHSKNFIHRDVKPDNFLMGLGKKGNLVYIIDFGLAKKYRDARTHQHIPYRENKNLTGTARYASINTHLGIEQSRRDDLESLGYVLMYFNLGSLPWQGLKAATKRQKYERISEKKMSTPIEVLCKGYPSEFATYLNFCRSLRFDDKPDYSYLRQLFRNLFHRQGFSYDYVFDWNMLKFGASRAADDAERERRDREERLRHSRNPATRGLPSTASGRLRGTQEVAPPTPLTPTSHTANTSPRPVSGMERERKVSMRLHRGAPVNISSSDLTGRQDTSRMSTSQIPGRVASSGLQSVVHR
From the text: as §1

[5] = biological target: 320 wild-type protein kinases (Homo sapiens, UniProt P49137); details: singlicate
From the text: as §1

[6] = biological target: 320 wild-type protein kinases (Homo sapiens, UniProt P21802); details: singlicate
From the text: as §1

[7] = biological target: 320 wild-type protein kinases (Homo sapiens, UniProt P07332); details: FES, singlicate
Chain of 320 wild-type protein kinases (Homo sapiens, UniProt P07332) (P07332 whole entry): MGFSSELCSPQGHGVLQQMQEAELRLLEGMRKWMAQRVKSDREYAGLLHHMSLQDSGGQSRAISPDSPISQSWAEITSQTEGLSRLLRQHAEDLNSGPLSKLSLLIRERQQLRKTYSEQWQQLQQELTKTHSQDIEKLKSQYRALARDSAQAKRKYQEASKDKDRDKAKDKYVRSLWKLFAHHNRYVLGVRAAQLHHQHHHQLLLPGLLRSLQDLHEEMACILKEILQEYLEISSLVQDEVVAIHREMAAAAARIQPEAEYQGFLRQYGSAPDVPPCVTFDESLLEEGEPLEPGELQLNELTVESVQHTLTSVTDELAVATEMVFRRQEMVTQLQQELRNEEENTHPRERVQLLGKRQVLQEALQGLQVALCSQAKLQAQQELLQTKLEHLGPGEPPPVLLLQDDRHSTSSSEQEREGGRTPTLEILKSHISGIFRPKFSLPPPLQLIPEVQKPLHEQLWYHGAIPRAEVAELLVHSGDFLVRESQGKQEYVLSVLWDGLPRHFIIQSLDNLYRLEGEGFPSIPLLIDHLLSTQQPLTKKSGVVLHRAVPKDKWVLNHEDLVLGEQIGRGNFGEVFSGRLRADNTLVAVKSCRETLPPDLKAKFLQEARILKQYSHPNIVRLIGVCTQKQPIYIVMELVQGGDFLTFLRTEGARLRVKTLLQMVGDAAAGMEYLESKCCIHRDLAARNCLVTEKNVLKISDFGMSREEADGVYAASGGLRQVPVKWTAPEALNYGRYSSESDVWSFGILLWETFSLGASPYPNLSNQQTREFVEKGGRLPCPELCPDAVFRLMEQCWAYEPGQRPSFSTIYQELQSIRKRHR
From the text: as §1

[8] = biological target: 320 wild-type protein kinases (Homo sapiens, UniProt Q8N5S9); details: singlicate
From the text: as §1

[9] = biological target: T1, 320 wild-type protein kinases (Homo sapiens, UniProt Q13043); details: singlicate
T1 sequence (Q13043 1-487): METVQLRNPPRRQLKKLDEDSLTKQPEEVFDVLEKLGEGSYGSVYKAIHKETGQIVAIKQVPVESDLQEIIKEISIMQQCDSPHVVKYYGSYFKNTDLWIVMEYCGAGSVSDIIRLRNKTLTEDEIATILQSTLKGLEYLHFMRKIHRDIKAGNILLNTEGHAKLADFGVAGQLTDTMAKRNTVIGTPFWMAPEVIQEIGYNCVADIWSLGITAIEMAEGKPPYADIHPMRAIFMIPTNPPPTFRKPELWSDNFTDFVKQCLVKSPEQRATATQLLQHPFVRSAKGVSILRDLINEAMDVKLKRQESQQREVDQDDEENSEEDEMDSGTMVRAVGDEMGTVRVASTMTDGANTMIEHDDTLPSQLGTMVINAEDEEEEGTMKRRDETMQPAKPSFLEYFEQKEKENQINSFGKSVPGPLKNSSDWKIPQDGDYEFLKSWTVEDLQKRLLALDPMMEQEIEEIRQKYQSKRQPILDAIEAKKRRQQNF
From the text: as §1

[10] = biological target: 320 wild-type protein kinases (Homo sapiens, UniProt P34947); details: singlicate
From the text: as §1

[11] = biological target: T2, 320 wild-type protein kinases (Homo sapiens, UniProt P51956); details: singlicate
T2 sequence (P51956 1-506): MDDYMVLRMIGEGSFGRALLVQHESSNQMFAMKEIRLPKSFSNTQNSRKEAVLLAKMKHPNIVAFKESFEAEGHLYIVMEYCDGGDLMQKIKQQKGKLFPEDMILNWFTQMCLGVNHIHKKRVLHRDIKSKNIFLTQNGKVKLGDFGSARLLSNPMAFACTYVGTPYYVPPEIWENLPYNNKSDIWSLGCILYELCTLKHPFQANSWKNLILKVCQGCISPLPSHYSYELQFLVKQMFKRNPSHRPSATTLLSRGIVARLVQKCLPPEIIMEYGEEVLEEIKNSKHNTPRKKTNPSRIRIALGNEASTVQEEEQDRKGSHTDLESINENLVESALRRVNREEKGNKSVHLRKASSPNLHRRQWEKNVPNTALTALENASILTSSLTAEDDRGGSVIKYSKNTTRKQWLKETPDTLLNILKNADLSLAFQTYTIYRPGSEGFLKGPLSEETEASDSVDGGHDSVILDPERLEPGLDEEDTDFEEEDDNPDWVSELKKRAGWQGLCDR
From the text: as §1

[12] = biological target: 320 wild-type protein kinases (Homo sapiens, UniProt P27361); details: singlicate
Chain of 320 wild-type protein kinases (Homo sapiens, UniProt P27361) (P27361 whole entry): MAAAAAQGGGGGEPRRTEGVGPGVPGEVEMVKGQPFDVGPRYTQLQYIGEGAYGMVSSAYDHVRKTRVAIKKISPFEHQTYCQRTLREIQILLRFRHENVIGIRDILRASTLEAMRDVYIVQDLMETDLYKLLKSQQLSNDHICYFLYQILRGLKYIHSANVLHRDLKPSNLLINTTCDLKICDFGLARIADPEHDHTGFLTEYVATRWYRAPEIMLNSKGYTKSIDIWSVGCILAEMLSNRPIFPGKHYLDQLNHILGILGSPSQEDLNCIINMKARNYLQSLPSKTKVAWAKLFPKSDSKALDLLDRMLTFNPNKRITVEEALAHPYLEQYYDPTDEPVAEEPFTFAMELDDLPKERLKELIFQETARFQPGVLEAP
From the text: as §1

[13] = biological target: 320 wild-type protein kinases (Homo sapiens, UniProt P51451); details: BLK, singlicate
From the text: as §1

[14] = biological target: 320 wild-type protein kinases (Homo sapiens, UniProt Q9BYP7); details: kinase WNK3, singlicate
Chain of 320 wild-type protein kinases (Homo sapiens, UniProt Q9BYP7) (Q9BYP7 whole entry): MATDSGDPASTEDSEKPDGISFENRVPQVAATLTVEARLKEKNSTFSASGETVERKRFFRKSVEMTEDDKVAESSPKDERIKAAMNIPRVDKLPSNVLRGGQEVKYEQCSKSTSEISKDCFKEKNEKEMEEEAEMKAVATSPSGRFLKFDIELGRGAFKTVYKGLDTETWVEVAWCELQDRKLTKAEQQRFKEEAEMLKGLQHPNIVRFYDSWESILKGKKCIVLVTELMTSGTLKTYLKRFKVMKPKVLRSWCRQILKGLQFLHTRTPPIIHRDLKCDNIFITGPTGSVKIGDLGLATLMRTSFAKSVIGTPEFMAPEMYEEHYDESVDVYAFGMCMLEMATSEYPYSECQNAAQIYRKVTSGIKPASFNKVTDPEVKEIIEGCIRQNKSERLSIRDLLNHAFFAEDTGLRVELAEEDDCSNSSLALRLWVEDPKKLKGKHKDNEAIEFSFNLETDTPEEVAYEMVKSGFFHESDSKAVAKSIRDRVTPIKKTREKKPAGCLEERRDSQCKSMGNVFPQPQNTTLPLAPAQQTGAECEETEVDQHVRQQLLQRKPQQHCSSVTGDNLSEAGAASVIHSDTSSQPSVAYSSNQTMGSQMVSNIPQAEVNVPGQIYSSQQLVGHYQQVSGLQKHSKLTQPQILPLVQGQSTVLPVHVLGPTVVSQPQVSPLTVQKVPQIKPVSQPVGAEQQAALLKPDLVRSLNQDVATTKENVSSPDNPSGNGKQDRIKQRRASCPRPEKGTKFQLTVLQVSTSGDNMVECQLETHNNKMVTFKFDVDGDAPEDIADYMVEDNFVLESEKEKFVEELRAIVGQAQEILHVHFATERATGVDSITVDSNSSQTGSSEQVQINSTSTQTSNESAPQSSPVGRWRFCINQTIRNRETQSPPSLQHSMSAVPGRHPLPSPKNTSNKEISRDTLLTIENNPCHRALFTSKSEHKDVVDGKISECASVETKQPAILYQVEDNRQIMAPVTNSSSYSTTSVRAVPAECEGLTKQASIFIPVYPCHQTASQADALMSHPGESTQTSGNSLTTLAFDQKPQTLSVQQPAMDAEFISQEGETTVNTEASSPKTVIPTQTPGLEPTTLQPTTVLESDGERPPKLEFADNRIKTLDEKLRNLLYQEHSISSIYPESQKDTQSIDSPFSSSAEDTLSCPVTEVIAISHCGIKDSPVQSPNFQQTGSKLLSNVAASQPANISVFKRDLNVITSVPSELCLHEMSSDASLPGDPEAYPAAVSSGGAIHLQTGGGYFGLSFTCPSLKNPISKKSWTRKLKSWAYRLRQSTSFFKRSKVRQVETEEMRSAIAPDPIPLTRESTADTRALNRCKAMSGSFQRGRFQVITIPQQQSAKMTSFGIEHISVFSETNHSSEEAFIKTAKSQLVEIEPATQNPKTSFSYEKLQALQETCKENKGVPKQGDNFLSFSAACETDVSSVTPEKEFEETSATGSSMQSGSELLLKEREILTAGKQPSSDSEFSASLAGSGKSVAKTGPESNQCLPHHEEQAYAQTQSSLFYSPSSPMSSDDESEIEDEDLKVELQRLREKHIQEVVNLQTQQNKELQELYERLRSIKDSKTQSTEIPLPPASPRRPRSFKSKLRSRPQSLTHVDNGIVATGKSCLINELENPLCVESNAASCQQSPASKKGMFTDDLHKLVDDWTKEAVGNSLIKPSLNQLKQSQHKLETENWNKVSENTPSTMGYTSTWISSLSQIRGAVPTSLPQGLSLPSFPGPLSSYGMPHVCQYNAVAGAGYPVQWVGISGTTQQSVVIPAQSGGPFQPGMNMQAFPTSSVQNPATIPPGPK
From the text: as §1

[15] = biological target: 320 wild-type protein kinases (Homo sapiens, UniProt Q5TCX8); details: singlicate
From the text: as §1

[16] = biological target: 320 wild-type protein kinases (Homo sapiens, UniProt Q9P1W9); details: singlicate
From the text: as §1

[17] = biological target: 320 wild-type protein kinases (Homo sapiens, UniProt Q02763); details: kinase TIE2, singlicate
Chain of 320 wild-type protein kinases (Homo sapiens, UniProt Q02763) (Q02763 23-1124): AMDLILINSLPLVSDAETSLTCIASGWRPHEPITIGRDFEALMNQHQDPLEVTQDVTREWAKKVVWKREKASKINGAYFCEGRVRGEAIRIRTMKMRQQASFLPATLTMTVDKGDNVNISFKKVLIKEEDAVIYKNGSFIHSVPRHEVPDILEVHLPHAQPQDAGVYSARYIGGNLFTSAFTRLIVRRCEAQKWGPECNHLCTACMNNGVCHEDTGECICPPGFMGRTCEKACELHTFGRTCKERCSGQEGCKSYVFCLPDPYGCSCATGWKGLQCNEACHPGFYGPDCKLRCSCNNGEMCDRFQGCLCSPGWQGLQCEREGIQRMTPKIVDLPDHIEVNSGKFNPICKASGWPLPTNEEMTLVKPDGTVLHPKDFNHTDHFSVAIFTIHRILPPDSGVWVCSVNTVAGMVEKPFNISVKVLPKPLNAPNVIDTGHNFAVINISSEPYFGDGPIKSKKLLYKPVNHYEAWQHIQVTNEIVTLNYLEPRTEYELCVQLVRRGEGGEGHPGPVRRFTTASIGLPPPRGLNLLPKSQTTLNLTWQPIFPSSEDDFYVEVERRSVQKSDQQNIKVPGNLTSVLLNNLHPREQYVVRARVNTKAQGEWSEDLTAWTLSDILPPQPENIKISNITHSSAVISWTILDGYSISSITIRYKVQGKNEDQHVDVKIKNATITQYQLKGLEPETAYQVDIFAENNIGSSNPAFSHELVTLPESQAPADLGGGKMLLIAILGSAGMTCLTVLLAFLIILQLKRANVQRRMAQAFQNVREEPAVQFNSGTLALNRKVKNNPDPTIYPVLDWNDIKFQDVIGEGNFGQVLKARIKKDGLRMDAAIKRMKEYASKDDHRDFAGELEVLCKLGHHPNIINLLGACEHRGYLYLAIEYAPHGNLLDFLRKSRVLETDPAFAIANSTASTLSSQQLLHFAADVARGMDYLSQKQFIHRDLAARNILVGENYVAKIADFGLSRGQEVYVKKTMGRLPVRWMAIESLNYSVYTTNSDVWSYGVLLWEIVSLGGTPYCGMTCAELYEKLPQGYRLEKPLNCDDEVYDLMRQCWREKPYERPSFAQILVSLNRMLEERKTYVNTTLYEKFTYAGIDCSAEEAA
From the text: as §1

Chain of 320 wild-type protein kinases (Homo sapiens, UniProt P49840) (P49840 whole entry): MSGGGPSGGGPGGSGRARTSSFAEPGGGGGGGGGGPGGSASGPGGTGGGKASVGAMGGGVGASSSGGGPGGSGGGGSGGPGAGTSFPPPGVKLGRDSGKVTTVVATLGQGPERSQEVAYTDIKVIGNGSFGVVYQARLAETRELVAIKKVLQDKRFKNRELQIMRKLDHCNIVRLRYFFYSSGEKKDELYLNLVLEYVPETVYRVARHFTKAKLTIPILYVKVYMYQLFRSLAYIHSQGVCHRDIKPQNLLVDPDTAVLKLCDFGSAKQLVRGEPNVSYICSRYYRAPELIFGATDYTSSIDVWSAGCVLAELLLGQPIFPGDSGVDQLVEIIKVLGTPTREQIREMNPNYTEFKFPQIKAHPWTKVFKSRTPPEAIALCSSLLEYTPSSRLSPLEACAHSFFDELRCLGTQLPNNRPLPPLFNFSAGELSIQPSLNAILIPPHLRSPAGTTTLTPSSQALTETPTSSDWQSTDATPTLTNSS

| Structure (SMILES) | Residual activity ([1]; 1.0E-06 M) | Residual activity ([1]; 1.0E-07 M) | Residual activity ([2]; 1.0E-06 M) | Residual activity ([2]; 1.0E-07 M) | Residual activity ([3]; 1.0E-06 M) | Residual activity ([3]; 1.0E-07 M) | Residual activity ([4]; 1.0E-06 M) | Residual activity ([4]; 1.0E-07 M) | Residual activity ([6]; FGF-R2, 1.0E-06 M) | Residual activity ([6]; FGF-R2, 1.0E-07 M) | Residual activity ([7]; 1.0E-06 M) | Residual activity ([7]; 1.0E-07 M) | Residual activity ([8]; CAMKK1, 1.0E-06 M) | Residual activity ([8]; CAMKK1, 1.0E-07 M) | Residual activity ([9]; MST1, 1.0E-06 M) | Residual activity ([9]; MST1, 1.0E-07 M) | Residual activity ([10]; GRK5, 1.0E-06 M) | Residual activity ([10]; GRK5, 1.0E-07 M) | Residual activity ([11]; NEK3, 1.0E-06 M) | Residual activity ([11]; NEK3, 1.0E-07 M) | also measured |
| --- | --- | --- | --- | --- | --- | --- | --- | --- | --- | --- | --- | --- | --- | --- | --- | --- | --- | --- | --- | --- | --- |
| C#Cc1cc(Nc2ncnc3cc(I)ccc23)ccc1Cl [Compound 41] | 143 % of control | 148 % of control | 88 % of control | 92 % of control | 84 % of control | 97 % of control | 115 % of control | 134 % of control | 85 % of control | 88 % of control | 93 % of control | 118 % of control | 84 % of control | 87 % of control | 84 % of control | 80 % of control | 111 % of control | 108 % of control | 103 % of control | 110 % of control | Residual activity ([5]; MAPKAPK2, 1.0E-07 M): 139 % of control; Residual activity ([12]; ERK1, 1.0E-06 M): 97 % of control; Residual activity ([12]; ERK1, 1.0E-07 M): 91 % of control; Residual activity ([13]; 1.0E-06 M): 93 % of control; Residual activity ([13]; 1.0E-07 M): 99 % of control; Residual activity, WNK3 ([14]; assay conc. 1.0E-06 M): 115 % of control; Residual activity, WNK3 ([14]; assay conc. 1.0E-07 M): 118 % of control; Residual activity ([15]; MLK4, 1.0E-06 M): 85 % of control; Residual activity ([15]; MLK4, 1.0E-07 M): 79 % of control; Residual activity ([16]; PIM2, 1.0E-06 M): 101 % of control; Residual activity ([16]; PIM2, 1.0E-07 M): 112 % of control; Residual activity, TIE2 ([17]; assay conc. 1.0E-06 M): 87 % of control; Residual activity, TIE2 ([17]; assay conc. 1.0E-07 M): 84 % of control |
| C#Cc1cc(Nc2ncnc3cc(OC)c(OC)cc23)ccc1Cl [Compound 45] | 122 % of control | 136 % of control | 89 % of control | 115 % of control | 91 % of control | 106 % of control | 111 % of control | 129 % of control | 69 % of control | 87 % of control | 97 % of control | 107 % of control | 110 % of control | 91 % of control | 83 % of control | 89 % of control | 111 % of control | 107 % of control | 113 % of control | 101 % of control | Residual activity ([5]; MAPKAPK2, 1.0E-06 M): 138 % of control; Residual activity ([12]; ERK1, 1.0E-06 M): 95 % of control; Residual activity ([12]; ERK1, 1.0E-07 M): 92 % of control; Residual activity ([13]; 1.0E-06 M): 62 % of control; Residual activity ([13]; 1.0E-07 M): 99 % of control; Residual activity, WNK3 ([14]; assay conc. 1.0E-06 M): 105 % of control; Residual activity, WNK3 ([14]; assay conc. 1.0E-07 M): 124 % of control; Residual activity ([15]; MLK4, 1.0E-06 M): 83 % of control; Residual activity ([15]; MLK4, 1.0E-07 M): 85 % of control; Residual activity ([16]; PIM2, 1.0E-06 M): 100 % of control; Residual activity ([16]; PIM2, 1.0E-07 M): 89 % of control; Residual activity, TIE2 ([17]; assay conc. 1.0E-06 M): 82 % of control; Residual activity, TIE2 ([17]; assay conc. 1.0E-07 M): 111 % of control |
